Data on two molecules can be found in PMC5413018, “Neuropeptide S (NPS) variants modify the signaling and risk effects of NPS Receptor 1 (NPSR1) variants in asthma” (PLoS ONE, 2017).

Where a chain is given by its changes, count along the chain named. Residues, ends and D or L forms follow the SMILES beside them.

One assay has as its target T1, NPSR1-Ile(107) (Homo sapiens, UniProt Q6W5P4, N107I).
T1 sequence (Q6W5P4 1-371 N107I): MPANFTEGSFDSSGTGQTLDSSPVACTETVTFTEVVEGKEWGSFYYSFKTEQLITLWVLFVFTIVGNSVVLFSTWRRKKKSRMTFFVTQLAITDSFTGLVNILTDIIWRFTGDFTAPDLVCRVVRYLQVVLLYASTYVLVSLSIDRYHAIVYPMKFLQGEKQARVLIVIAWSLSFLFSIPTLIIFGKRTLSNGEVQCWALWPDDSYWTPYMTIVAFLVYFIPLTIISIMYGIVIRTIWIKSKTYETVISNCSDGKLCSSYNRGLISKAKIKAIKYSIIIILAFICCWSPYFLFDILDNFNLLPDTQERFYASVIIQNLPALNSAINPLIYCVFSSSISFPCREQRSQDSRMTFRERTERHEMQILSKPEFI
Description: CRE-dependent luciferase activity, NPSR1-Ile(107). Type of assay: cell-based. Details: expressed in transfected cells; host or cells: HEK293. The following applies: HEK293 transiently transfected with NPSR1-Ile(107); NPS 10 pM-100 μM, 3 h; three experiments in triplicates; mean ± SE; Val(6) vs Leu(6) p = 0.004; read-out: pEC50 for CRE-dependent luciferase activity (converted). From the text: (§1) To compare the bioactivities of the two NPS variants, we measured the dose-responses of NPSR1-Ile(107) and NPSR1-Asn(107) coding variants to either wildtype NPS-Val(6) or alternative NPS-Leu(6) in a luciferase assay dependent on the activation of a cAMP-response element (CRE). This assay was used since elevation of the intracellular cAMP levels activates cAMP response element binding protein (CREB) via […]. Activated CREB binds to CRE and induces the expression of downstream target genes of the cAMP/PKA signaling pathway. Because of the low endogenous expression levels of NPSR1 in majority of the available cell lines, we first used HEK293 cells with forced NPSR1 expression as a model for ligand-receptor interactions. […] Firefly and Renilla luciferase activity was measured 3 h after stimulation with serial dilutions of NPS (10 pM-100 μM). […]
(§2) Human embryonic kidney cells (HEK293) were cultured in MEM+GlutaMAX-1 medium (Gibco/Invitrogen) supplemented with 10% fetal calf serum (FCS) (Biosera), 1% sodium pyruvate, 1% non-essential amino acids and 1% penicillin/streptomycin (Gibco/Invitrogen). […] The HEK293 cell line was chosen for ligand-receptor studies because it is a well-established model for addressing numerous questions in basic biology and is easy to transfect and amenable of stringent quantitative assessment. […]

The target of a further assay is T2, NPSR1-Asn(107) (Homo sapiens, UniProt Q6W5P4).
T2 construct: expressed in transfected cells; host or cells: HEK293
T2 sequence (Q6W5P4 1-371): T1 sequence (Q6W5P4 1-371 N107I) with I107N
Description: CRE-dependent luciferase activity, NPSR1-Asn(107). The format is cell-based. The note with it: HEK293 transiently transfected with NPSR1-Asn(107); NPS 10 pM-100 μM, 3 h; three experiments in triplicates; mean ± SE; Val(6) vs Leu(6) p = 0.03; read-out: pEC50 for CRE-dependent luciferase activity (converted).
Source text: as §1, §2

For `CSCC[C@H](NC(=O)CNC(=O)[C@@H](NC(=O)CNC(=O)[C@H](CC(C)C)NC(=O)CNC(=O)[C@H](CC(N)=O)NC(=O)[C@H](CCCNC(=N)N)NC(=O)[C@H](Cc1ccccc1)NC(=O)[C@@H](N)CO)[C@@H](C)O)C(=O)N[C@@H](CCCCN)C(=O)N[C@@H](CCCCN)C(=O)N[C@H](C(=O)N[C@@H](CO)C(=O)N[C@@H](Cc1ccccc1)C(=O)N[C@@H](CCC(N)=O)C(=O)N[C@@H](CCCNC(=N)N)C(=O)N[C@@H](C)C(=O)N[C@@H](CCCCN)C(=O)N[C@@H](CO)C(=O)O)[C@@H](C)O` [NPS-Leu(6)] (H-SFRNGLGTGMKKTSFQRAKS-OH), the results for the EC50 at NPSR1-Ile(107) and on NPSR1-Asn(107) were 200 nM and 12600 nM, respectively.
On to `CSCC[C@H](NC(=O)CNC(=O)[C@@H](NC(=O)CNC(=O)[C@@H](NC(=O)CNC(=O)[C@H](CC(N)=O)NC(=O)[C@H](CCCNC(=N)N)NC(=O)[C@H](Cc1ccccc1)NC(=O)[C@@H](N)CO)C(C)C)[C@@H](C)O)C(=O)N[C@@H](CCCCN)C(=O)N[C@@H](CCCCN)C(=O)N[C@H](C(=O)N[C@@H](CO)C(=O)N[C@@H](Cc1ccccc1)C(=O)N[C@@H](CCC(N)=O)C(=O)N[C@@H](CCCNC(=N)N)C(=O)N[C@@H](C)C(=O)N[C@@H](CCCCN)C(=O)N[C@@H](CO)C(=O)O)[C@@H](C)O` [NPS-Val(6)] (H-SFRNGVGTGMKKTSFQRAKS-OH), for which the EC50 on NPSR1-Ile(107) was 3.98 nM; on NPSR1-Asn(107), 794 nM.
